Consider 17 compounds from US11976083B2, “Inhibitors of peptidylarginine deiminases” (Gilead Sciences, Inc., priority 2020, dated 2024).

The IC50 is the midpoint of a concentration-inhibition curve.

The experiment has as its target T1, human PAD4 (Homo sapiens, UniProt Q9UM07).
T1 construct: human PAD4 (NM_012387), A2-P663, was PCR amplified; His-SUMO (N, cleaved yes); made in house; host or cells: E. coli BL21(DE3)
Put plainly: In vitro PAD4 BAEE biochemical assay. The settings on record: BAEE substrate 3 mM, 5 nM PAD4, 2 mM calcium chloride; geometric mean of multiple experiments. In a few lines:
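Assay was run at 25 °C using 3 mM BAEE and 5 nM human PAD4 after a 30 min compound preincubation; ammonia produced over 2 h was quantified by OPA-derived fluorescence. Full inhibition was defined by 50 µM BB-Cl-Amidine, and IC50 came from variable-slope nonlinear regression.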

T1 sequence (Q9UM07 2-663): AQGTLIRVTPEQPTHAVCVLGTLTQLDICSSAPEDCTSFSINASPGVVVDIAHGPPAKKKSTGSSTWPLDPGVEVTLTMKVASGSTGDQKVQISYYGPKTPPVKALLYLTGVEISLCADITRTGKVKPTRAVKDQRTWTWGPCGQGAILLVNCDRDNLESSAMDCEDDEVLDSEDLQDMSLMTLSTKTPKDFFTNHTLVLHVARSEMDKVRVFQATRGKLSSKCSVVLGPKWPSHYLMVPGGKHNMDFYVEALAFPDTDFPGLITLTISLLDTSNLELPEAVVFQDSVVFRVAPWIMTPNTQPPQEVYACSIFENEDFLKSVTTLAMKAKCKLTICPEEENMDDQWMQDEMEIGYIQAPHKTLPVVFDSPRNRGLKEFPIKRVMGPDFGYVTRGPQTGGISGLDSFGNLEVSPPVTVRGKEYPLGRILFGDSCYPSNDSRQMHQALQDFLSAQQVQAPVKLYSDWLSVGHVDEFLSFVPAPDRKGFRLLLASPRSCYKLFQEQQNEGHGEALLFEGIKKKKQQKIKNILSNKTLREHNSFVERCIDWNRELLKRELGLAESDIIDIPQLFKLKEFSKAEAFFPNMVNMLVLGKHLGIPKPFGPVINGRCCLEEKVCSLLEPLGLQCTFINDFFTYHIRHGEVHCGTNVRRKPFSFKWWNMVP

As to `COc1cc(C(=O)N2C[C@H](N)[C@@H]3CC[C@H]2C3)cc2nc(-c3cc4ccc5nc4n3CCCC[C@]3(F)C[C@H]3C(=O)N3CCC[C@H]53)n(C)c12` [Example 955, (2~{R},8~{S},10~{S})-16-[5-[(1~{S},4~{R},5~{R})-4-amino-2-azabicyclo[3.2.1]octane-2-carbonyl]-7-methoxy-1-methyl-benzimidazol-2-yl]-10-fluoro-6,15,21-triazapentacyclo [13.5.2.0^{2,6}.0^{8,10}.0^ {18,22}]docosa-1(21),16, 18(22),19-tetraen-7-one], the IC50 was found to be 81 nM.
In the case of `COc1cc(C(=O)N2CC[C@@H](OC(F)F)[C@@H](N)C2)cc2nc(-c3cc4ccc5nc4n3CCCCCc3ccc(Cl)nc3C(=O)N[C@@H]5C)n(C)c12` [Example 784, (2~{R})-17-[5-[(3~{S},4~{R})-3-amino-4-(difluoromethoxy)piperidine-1-carbonyl]-7-methoxy-1-methyl-benzimidazol-2-yl]-7-chloro-2-methyl-3,6,16,22-tetrazatetracyclo[14.5.2.0^ {5,10}.0^{19,23}]tricosa-1(21),5(10),6,8,17,19,22-heptaen-4-one], the IC50 worked out at 97 nM.
For the compound `COc1cc(C(=O)N2[C@H]3CC[C@@H]2[C@H](N)C3)cc2nc(-c3cc4ccc5cc4n3CCCCCC[C@](C)(OC)C(=O)N[C@@H]5C)n(C)c12` [Example 339, (8~{S),11~{R})-17-[5-[(1~{R},2~{R},4~{S})-2-amino-7-azabicyclo[2.2.1]heptane-7-carbonyl]-7-methoxy-1-methyl-benzimidazol-2-yl]-8-methoxy-8,11-dimethyl-1,10-diazatricyclo[10.5.2.0^{15,18}]nonadeca-12(19),13,15(18),16-tetraen-9-one], the IC50 amounted to 39 nM.
As to `COc1cc(C(=O)N2C[C@H](N)[C@@H]3CC[C@H]2C3)cc2nc(-c3cc4ccc5nc4n3CCCCCC[C@H](c3ccccn3)C(=O)N[C@@H]5C)n(C)c12` [Example 892, (8~{R},11~{R})-17-[5-[(1~{S},4~{R},5~{R})-4-amino-2-azabicyclo[3.2.1]octane-2-carbonyl]-7-methoxy-1-methyl-benzimidazol-2-yl]-11-methyl-8-(2-pyridyl)-1,10,19-triazatricyclo[10.5.2.0^{15,18}] nonadeca-12(19), 13,15(18),16-tetraen-9-one], the IC50 is 27 nM.
In the case of `COc1cc(C(=O)N2C[C@H](N)[C@@H]3CC[C@H]2C3)cc2nc(-c3cc4ccc5nc4n3CCCCCc3nc(C(F)(F)F)ncc3C(=O)N[C@@H]5C)n(C3CC3)c12` [Example 934, (2~{R})-17-[5-[(1~{S),4~{R},5~ {R})-4-amino-2-azabicyclo [3.2.1]octane-2-carbonyl]-1-cyclopropyl-7-methoxy-benzimidazol-2-yl]-2-methyl-8-(trifluoromethyl)-3,7,9,16,22-pentazatetracyclo[14.5.2.0^ {5,10}.0^{19,23}]tricosa-1(21),5(10),6,8,17,19,22-heptaen-4-one], the IC50 worked out at 103 nM.
With `COc1cc(C(=O)N2C[C@H](N)[C@@H]3CC[C@H]2C3)cc2nc(-c3cc4ccc5nc4n3CC(F)(F)CCCc3ccccc3C(=O)N[C@@H]5C)n(C)c12` [Example 716, (2~{R})-17-[5-[(1~{S},4~ {R},5~{R})-4-amino-2-azabicyclo[3.2.1]octane-2-carbonyl]-7-methoxy-1-methyl-benzimidazol-2-yl]-14,14-difluoro-2-methyl-3,16,22-triazatetracyclo [14.5.2.0^{5,10}.0^{19,23}] tricosa-1(22),5(10),6,8,17, 19(23),20-heptaen-4-one], the IC50 is 13 nM.
`COc1cc(C(=O)N2CCC[C@@H](N)[C@H]2C)cc2nc(-c3cc4ccc5nc4n3CC(F)(F)CCC[C@]3(F)C[C@H]3C(=O)N[C@@H]5C)n(C)c12` [Example 703, (2~{R},5~{S},7~{S})-14-[5-[(2~{R},3~{R})-3-amino-2-methyl-piperidine-1-carbonyl]-7-methoxy-1-methyl-benzimidazol-2-yl]-7,11,11-trifluoro-2-methyl-3,13,19-triazatetracyclo[11.5.2.0^ {5,7}.0^{16,20}]icosa-1(19), 14,16(20),17-tetraen-4-one]: the concentration for half-maximal inhibition (IC50) is 11 nM.
In the case of `C[C@H]1NC(=O)c2ccc(Cl)nc2CCCCCn2c(-c3nc4cc(C(=O)N5C[C@H](N)[C@@H]6CC[C@H]5C6)cc(Cl)c4n3C3CC3)cc3ccc1nc32` [Example 812, (2~{R})-17-[5-[(1~{S},4~{R}, 5~{R})-4-amino-2-azabicyclo [3.2.1]octane-2-carbonyl]-7-chloro-1-cyclopropyl-benzimidazol-2-yl]-8-chloro-2-methyl-3,9,16,22-tetrazatetracyclo[14.5.2.0^ {5,10}.0^{19,23}]tricosa-1(21),5(10),6,8,17,19,22-heptaen-4-one], the IC50 is 31 nM.
For `C[C@@H]1[C@H](N)CCCN1C(=O)c1cc(F)c2c(c1)nc(-c1cc3ccc4nc3n1CCCCCc1ncc3ccccc3c1C(=O)N[C@@H]4C)n2C1CC1` [Example 748, (2~{R})-21-[5-[(2~{R},3~ {R})-3-amino-2-methyl-piperidine-1-carbonyl]-1-cyclopropyl-7-fluoro-benzimidazol-2-yl]-2-methyl-3,13,20,26-tetrazapentacyclo[18.5.2.0^ {5,14}.0^{6,11}.0^{23,27}] heptacosa-1(26),5(14),6(11), 7,9,12,21,23(27),24-nonaen-4-one], the 50% inhibitory concentration (IC50) turned out to be 25 nM.
Turning to `C[C@H]1NC(=O)[C@@](F)(c2ccccn2)CCCCCCn2c(-c3nc4cc(C(=O)N5C[C@H](N)[C@@H]6CC[C@H]5C6)cc(F)c4n3C3CC3)cc3ccc1nc32` [Example 885, (8~{S},11~{R})-17-[5-[(1~{S},4~{R},5~{R})-4-amino-2-azabicyclo[3.2.1]octane-2-carbonyl]-1-cyclopropyl-7-fluoro-benzimidazol-2-yl]-8-fluoro-11-methyl-8-(2-pyridyl)-1,10,19-triazatricyclo[10.5.2.0^ {15,18}]nonadeca-12(19), 13,15(18),16-tetraen-9-one], the IC50 turned out to be 11 nM.
With `COc1cc(C(=O)NC2CNC2)cc2nc(-c3cc4ccc5nc4n3CCCCCCC(C)(C)C(=O)N[C@@H]5C)n(C)c12` [Example 177, ~{N}-(azetidin-3-yl)-7-methoxy-1-methyl-2-[(11~{R})-8,8,11-trimethyl-9-oxo-1,10,19-triazatricyclo[10.5.2.0^{15,18}]nonadeca-12(19),13,15(18),16-tetraen-17-yl]benzimidazole-5-carboxamide] the figure was 30500 nM; with `C[C@H]1NC(=O)c2ccccc2CCCCCn2c(-c3nc4cc(C(=O)N[C@H]5CNCC[C@@H]5F)c(F)cc4n3C3CC3)cc3ccc1nc32` [Example 347, 1-cyclopropyl-6-fluoro-~{N}-[(3~{S},4~{S})-4-fluoro-3-piperidyl]-2-[(2~{R})-2-methyl-4-oxo-3,16,22-triazatetracyclo[14.5.2.0^{5,10}.0^{19,23}]tricosa-1(22),5,7,9,17,19(23),20-heptaen-17-yl]benzimidazole-5-carboxamide], 51 nM; with `C[C@H]1NC(=O)C2(CCCCCCn3c(-c4nc5cc(C(=O)N[C@H]6CNCC[C@@H]6F)c(F)cc5n4C4CC4)cc4ccc1nc43)COC2` [Example 603, 1-cyclopropyl-6-fluoro-~ {N}-[(3~{S},4~{S})-4-fluoro-3-piperidyl]-2-[(11~{R})-11-methyl-9-oxo-spiro[1,10,19-triazatricyclo [10.5.2.0^{15,18}]nonadeca-12,14,16,18-tetraene-8,3′-oxetane]-17-yl] benzimidazole-5-carboxamide], 44 nM.
Regarding `COc1cc(C(=O)N2CCC[C@@H](N)C2)cc2nc(-c3cc4ccc5nc4n3C[C@@H]3C[C@H]3COCCC(=O)N[C@@H]5C)n(C)c12` [Example 150, (3~{R},5~{R},12~{R})-18-[5-[(3~{R})-3-aminopiperidine-1-carbonyl]-7-methoxy-1-methyl-benzimidazol-2-yl]-12-methyl-7-oxa-1,11,20-triazatetracyclo[11.5.2.0^{3,5}.0^{16,19}] icosa-13(20),14,16(19),17-tetraen-10-one], the concentration for half-maximal inhibition (IC50) amounted to 107 nM.
For the compound `COc1cc(C(=O)N2C[C@H](N)C[C@@H](F)C2)cc2nc(-c3cc4ccc5nc4n3CC(F)(F)CCC[C@@H]3C[C@H]3C(=O)N[C@@H]5C)n(C)c12` [Example 851, (2~{R},5~{R},7~{R})-14-[5-[(3~{R},5~{R})-3-amino-5-fluoro-piperidine-1-carbonyl]-7-methoxy-1-methyl-benzimidazol-2-yl]-11,11-difluoro-2-methyl-3,13,19-triazatetracyclo[11.5.2.0^ {5,7}.0^{16,20}]icosa-1(19), 14,16(20),17-tetraen-4-one], the concentration for half-maximal inhibition (IC50) worked out at 20 nM.
With `C[C@H]1NC(=O)[C@H]2C[C@@H]2CC(F)(F)CCCn2c(-c3nc4cc(C(=O)N5C[C@H](N)[C@@H]6CC[C@H]5C6)cc(F)c4n3C3CC3)cc3ccc1nc32` [Example 880, (2~{R},5~{S},7~{R})-14-[5-[(1~{S},4~{R},5~{R})-4-amino-2-azabicyclo[3.2.1]octane-2-carbonyl]-1-cyclopropyl-7-fluoro-benzimidazol-2-yl]-9,9-difluoro-2-methyl-3,13,19-triazatetracyclo [11.5.2.0^{5,7}.0^{16,20}] icosa-1(19),14,16(20), 17-tetraen-4-one] the figure was 39 nM.
The same measure for `C[C@H]1NC(=O)[C@@H]2C[C@H]2CC(F)(F)CCCn2c(-c3nc4cc(C(=O)N[C@H]5CNCC[C@@H]5F)c(F)cc4n3C)cc3ccc1nc32` [Example 625, 2-[(2~{R},5~{R},7~{S})-9,9-difluoro-2-methyl-4-oxo-3,13,19-triazatetracyclo[11.5.2.0^ {5,7}.0^{16,20}]icosa-1(19),14,16(20),17-tetraen-14-yl]-6-fluoro-~ {N}-[(3~{S},4~{S})-4-fluoro-3-piperidyl]-1-methyl-benzimidazole-5-carboxamide]: 9 nM.
